In PMC10700596 (Nature Communications, 2023):
Values joined by “and” are separate entries in the source; they are usually repeats but may differ in a detail not shown here. Identical values can stand only once.

How the values were obtained:
mice = format: in vivo; conditions: absence of injury
EP4R [1] = molecular target: T1, EP4R (Homo sapiens, UniProt P35408); experiment: biochemical; format: binding; conditions: 3H-PGE2; read-out: Radiologand displacement Ki
T1 construct: Tango fusion cassette (only 'tango' is printed); expressed in transfected cells; host or cells: HTLA cells (tTA-dependent luciferase reporter, β-arrestin2-TEV fusion)

AXL = AXL (Homo sapiens, UniProt P30530); experiment: biochemical; format: binding; conditions: 10000 nM; read-out: Percent Control
[2] = molecular target: T2, JAK3(JH1domain-catalytic) (Homo sapiens, UniProt P52333); experiment: KINOMEscan; format: binding
T2 construct: JAK3(JH1domain-catalytic); purchased Eurofins DiscoverX KINOMEscan (scanEDGE, 97 kinases)

ABL1-nonphosphorylated = ABL1-nonphosphorylated (Homo sapiens, UniProt P00519); experiment: biochemical; format: binding; conditions: 10000 nM; read-out: Percent Control
ZAP70 = ZAP70 (Homo sapiens, UniProt P43403); experiment: biochemical; format: binding; conditions: 10000 nM; read-out: Percent Control
From the text: (§1) . […] This panel includes several adverse drug reaction receptors such as the serotonin receptor 5HT2b, M1 and M2 muscarinic receptors and adrenergic receptors. […]. page 7:
(§2) Supplementary Figure 7: Non-GPCR off-target screening for 74. a)-e) Dose-response curves of 74 at […]
(§3) proliferator-activated receptor gamma (PPARγ, Eurofins item G124). Data in a)-e) and g)-i) represent two technical replicates. Source data are provided as a Source Data file.
(§4) (1 picture or pasted object on this page, not shown here)

CDK2 = CDK2 (Homo sapiens, UniProt P24941); experiment: biochemical; format: binding; conditions: 10000 nM; read-out: Percent Control
From the text: as §1, §2, §3, §4

PIM1 = PIM1 (Homo sapiens, UniProt P11309); experiment: biochemical; format: binding; conditions: 10000 nM; read-out: Percent Control
From the text: as §1, §2, §3, §4

FGFR2 = FGFR2 (Homo sapiens, UniProt P21802); experiment: biochemical; format: binding; conditions: 10000 nM; read-out: Percent Control
From the text: as §1, §2, §3, §4

PDPK1 = PDPK1 (Homo sapiens, UniProt O15530); experiment: biochemical; format: binding; conditions: 10000 nM; read-out: Percent Control
From the text: as §1, §2, §3, §4

IKK-alpha = IKK-alpha (Homo sapiens, UniProt O15111); experiment: biochemical; format: binding; conditions: 10000 nM; read-out: Percent Control
From the text: as §1, §2, §3, §4

CHEK1 = CHEK1 (Homo sapiens, UniProt O14757); experiment: biochemical; format: binding; conditions: 10000 nM; read-out: Percent Control
From the text: as §1, §2, §3, §4

FAK = FAK (Homo sapiens, UniProt Q05397); experiment: biochemical; format: binding; conditions: 10000 nM; read-out: Percent Control
From the text: as §1, §2, §3, §4

CDK11 = CDK11 (Homo sapiens, UniProt Q9BWU1); experiment: biochemical; format: binding; conditions: 10000 nM; read-out: Percent Control
From the text: as §1, §2, §3, §4

ERK1 = ERK1 (Homo sapiens, UniProt P27361); experiment: biochemical; format: binding; conditions: 10000 nM; read-out: Percent Control
From the text: as §1, §2, §3, §4

PRKCE = PRKCE (Homo sapiens, UniProt Q02156); experiment: biochemical; format: binding; conditions: 10000 nM; read-out: Percent Control
From the text: as §1, §2, §3, §4

INSR = INSR (Homo sapiens, UniProt P06213); experiment: biochemical; format: binding; conditions: 10000 nM; read-out: Percent Control
From the text: as §1, §2, §3, §4

DCAMKL1 = DCAMKL1 (Homo sapiens, UniProt O15075); experiment: biochemical; format: binding; conditions: 10000 nM; read-out: Percent Control
From the text: as §1, §2, §3, §4

p38-alpha = p38-alpha (Homo sapiens, UniProt Q16539); experiment: biochemical; format: binding; conditions: 10000 nM; read-out: Percent Control
From the text: as §1, §2, §3, §4

DYRK1B = DYRK1B (Homo sapiens, UniProt Q9Y463); experiment: biochemical; format: binding; conditions: 10000 nM; read-out: Percent Control
From the text: as §1, §2, §3, §4

BTK = BTK (Homo sapiens, UniProt Q06187); experiment: biochemical; format: binding; conditions: 10000 nM; read-out: Percent Control
From the text: as §1, §2, §3, §4

ULK2 = ULK2 (Homo sapiens, UniProt Q8IYT8); experiment: biochemical; format: binding; conditions: 10000 nM; read-out: Percent Control
From the text: as §1, §2, §3, §4

TRKA = TRKA (Homo sapiens, UniProt P04629); experiment: biochemical; format: binding; conditions: 10000 nM; read-out: Percent Control
From the text: as §1, §2, §3, §4

GSK3B = GSK3B (Homo sapiens, UniProt P49841); experiment: biochemical; format: binding; conditions: 10000 nM; read-out: Percent Control
From the text: as §1, §2, §3, §4

YANK3 = YANK3 (Homo sapiens, UniProt Q86UX6); experiment: biochemical; format: binding; conditions: 10000 nM; read-out: Percent Control
From the text: as §1, §2, §3, §4

PIK3CG = PIK3CG (Homo sapiens, UniProt P48736); experiment: biochemical; format: binding; conditions: 10000 nM; read-out: Percent Control
From the text: as §1, §2, §3, §4

ROCK2 = ROCK2 (Homo sapiens, UniProt O75116); experiment: biochemical; format: binding; conditions: 10000 nM; read-out: Percent Control
From the text: as §1, §2, §3, §4

EP4R Thr76Ala mutant = EP4R Thr76Ala mutant (Homo sapiens, UniProt P35408, T76A); format: cell-based; conditions: IC50 vs WT EP4R
From the text: three independent experiments. Source data are provided as a Source Data file.
as §4

97 human kinases = format: binding; conditions: 10 µM
From the text: as §1, §2, §3, §4
Description of Additional Supplementary Files
File Name: Supplementary Data 1
Description: List of all compounds described in this work.
For each compound, the compound number, the virtual library code (ZINC / Design ID), the Enamine catalog code (Enamine catalog ID), 2D information (SMILES) and a brief description whether the compound was derived from virtual screening or optimization of initial hits (Set) are provided. For virtual screening compounds, the displacement of radiolabeled 3HPGE2 at 10 µM in the initial binding assay at […]
For hit compounds, logIC50, IC50 and Ki in the EP4R PRESTO-Tango or EP4R Arrestin-BRET assays are shown. For lead compounds, the Kb in the EP4R cAMP Assay and Ki from the EP4R radioligand displacement assay are listed.
File Name: Supplementary Data 2
Description: Off-target screening of compound 74 against a panel of 97 human kinases (KINOMEscan, […]

EP1R = EP1R (Homo sapiens, UniProt P34995); experiment: Radioligand (3H-PGE2) displacement assay at EP1R; format: binding
EP4R [3] = molecular target: T1, EP4R; experiment: cell-based; conditions: read-out: cAMP Assay KB

T2 sequence (P52333 782-1124 limits assumed): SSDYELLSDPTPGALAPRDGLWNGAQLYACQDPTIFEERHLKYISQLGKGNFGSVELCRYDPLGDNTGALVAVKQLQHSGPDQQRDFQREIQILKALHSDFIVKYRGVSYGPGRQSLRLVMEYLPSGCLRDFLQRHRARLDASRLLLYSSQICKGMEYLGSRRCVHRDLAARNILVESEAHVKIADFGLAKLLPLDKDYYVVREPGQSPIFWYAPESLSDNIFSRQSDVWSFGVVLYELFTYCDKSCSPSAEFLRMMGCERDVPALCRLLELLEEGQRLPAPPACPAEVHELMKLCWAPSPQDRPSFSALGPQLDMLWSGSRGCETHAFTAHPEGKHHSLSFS
T1 sequence (P35408 whole entry, the tested form may be a part): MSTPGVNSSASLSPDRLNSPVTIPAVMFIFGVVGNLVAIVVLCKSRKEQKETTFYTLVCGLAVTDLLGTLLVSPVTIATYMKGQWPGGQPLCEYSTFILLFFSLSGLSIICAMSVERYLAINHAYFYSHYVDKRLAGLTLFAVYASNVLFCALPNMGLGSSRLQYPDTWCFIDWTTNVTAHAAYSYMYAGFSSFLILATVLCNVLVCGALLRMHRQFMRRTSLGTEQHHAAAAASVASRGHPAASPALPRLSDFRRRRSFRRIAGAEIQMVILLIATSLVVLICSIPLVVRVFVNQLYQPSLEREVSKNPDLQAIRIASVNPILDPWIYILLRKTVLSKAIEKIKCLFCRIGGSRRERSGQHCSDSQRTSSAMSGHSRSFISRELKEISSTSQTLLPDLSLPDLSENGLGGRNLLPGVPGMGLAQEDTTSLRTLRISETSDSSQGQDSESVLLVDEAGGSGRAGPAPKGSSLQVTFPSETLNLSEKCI
Chain of FAK (Q05397 whole entry): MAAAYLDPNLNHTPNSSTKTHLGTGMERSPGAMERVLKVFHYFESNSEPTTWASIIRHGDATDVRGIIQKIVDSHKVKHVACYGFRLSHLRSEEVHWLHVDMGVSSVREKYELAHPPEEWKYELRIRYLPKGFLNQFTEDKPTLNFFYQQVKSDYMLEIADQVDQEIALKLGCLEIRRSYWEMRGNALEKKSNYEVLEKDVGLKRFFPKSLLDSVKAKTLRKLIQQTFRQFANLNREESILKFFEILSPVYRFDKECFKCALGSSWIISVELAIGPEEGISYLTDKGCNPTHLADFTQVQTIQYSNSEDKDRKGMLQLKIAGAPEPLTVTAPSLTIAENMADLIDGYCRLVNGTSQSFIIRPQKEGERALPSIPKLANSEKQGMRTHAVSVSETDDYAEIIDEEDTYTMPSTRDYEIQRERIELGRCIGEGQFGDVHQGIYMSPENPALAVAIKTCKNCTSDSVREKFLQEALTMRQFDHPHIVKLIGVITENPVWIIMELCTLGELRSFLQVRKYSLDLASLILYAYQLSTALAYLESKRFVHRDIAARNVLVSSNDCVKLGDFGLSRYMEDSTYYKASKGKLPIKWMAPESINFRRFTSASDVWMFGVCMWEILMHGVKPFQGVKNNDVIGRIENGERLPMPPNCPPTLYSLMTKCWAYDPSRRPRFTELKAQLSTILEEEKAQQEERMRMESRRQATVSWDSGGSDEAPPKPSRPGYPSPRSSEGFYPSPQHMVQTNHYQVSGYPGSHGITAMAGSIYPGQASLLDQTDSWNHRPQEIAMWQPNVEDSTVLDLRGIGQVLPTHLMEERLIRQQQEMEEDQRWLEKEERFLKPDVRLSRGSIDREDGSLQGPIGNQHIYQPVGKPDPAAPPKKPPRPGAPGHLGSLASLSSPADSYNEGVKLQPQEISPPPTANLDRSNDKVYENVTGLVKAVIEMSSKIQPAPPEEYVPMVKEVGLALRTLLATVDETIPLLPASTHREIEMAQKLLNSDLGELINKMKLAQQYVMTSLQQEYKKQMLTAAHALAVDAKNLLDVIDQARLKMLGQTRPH
Chain of BTK (Q06187 whole entry): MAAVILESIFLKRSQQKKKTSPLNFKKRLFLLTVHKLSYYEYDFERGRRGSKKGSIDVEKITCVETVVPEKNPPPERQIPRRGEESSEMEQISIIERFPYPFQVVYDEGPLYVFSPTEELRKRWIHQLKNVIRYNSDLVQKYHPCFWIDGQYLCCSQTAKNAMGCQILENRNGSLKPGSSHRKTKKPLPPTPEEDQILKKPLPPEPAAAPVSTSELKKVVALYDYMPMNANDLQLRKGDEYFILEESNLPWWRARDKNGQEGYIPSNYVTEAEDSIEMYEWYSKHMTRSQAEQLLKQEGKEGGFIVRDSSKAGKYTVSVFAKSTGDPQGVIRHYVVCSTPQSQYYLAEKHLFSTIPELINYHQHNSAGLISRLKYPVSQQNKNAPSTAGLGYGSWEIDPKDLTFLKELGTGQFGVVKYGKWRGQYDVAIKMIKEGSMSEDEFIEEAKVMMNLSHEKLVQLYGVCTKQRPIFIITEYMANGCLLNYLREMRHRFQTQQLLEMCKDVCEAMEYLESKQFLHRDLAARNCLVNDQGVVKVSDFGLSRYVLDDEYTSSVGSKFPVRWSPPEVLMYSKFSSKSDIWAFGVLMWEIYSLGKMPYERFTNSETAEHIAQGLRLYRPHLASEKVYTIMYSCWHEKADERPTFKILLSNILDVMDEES
Chain of PRKCE (Q02156 whole entry): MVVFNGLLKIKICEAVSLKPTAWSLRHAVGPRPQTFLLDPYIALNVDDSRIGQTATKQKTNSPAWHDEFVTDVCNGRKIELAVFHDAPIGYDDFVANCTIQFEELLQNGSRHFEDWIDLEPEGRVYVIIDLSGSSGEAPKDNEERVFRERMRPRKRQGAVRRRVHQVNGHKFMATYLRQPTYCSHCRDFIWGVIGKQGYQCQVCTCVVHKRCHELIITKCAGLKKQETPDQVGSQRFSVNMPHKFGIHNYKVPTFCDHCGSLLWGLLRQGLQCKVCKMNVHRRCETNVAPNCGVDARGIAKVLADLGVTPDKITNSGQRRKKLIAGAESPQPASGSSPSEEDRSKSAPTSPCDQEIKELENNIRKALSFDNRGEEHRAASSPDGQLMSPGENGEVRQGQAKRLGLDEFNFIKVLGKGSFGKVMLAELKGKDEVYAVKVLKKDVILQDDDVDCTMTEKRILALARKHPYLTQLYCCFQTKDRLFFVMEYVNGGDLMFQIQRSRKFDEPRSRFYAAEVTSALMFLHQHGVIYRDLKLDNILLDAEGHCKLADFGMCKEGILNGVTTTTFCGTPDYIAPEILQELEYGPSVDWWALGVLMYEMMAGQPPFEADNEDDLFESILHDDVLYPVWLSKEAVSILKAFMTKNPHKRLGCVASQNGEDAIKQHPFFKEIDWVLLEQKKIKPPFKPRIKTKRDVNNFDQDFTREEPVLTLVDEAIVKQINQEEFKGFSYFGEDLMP
Chain of ABL1-nonphosphorylated (P00519 whole entry): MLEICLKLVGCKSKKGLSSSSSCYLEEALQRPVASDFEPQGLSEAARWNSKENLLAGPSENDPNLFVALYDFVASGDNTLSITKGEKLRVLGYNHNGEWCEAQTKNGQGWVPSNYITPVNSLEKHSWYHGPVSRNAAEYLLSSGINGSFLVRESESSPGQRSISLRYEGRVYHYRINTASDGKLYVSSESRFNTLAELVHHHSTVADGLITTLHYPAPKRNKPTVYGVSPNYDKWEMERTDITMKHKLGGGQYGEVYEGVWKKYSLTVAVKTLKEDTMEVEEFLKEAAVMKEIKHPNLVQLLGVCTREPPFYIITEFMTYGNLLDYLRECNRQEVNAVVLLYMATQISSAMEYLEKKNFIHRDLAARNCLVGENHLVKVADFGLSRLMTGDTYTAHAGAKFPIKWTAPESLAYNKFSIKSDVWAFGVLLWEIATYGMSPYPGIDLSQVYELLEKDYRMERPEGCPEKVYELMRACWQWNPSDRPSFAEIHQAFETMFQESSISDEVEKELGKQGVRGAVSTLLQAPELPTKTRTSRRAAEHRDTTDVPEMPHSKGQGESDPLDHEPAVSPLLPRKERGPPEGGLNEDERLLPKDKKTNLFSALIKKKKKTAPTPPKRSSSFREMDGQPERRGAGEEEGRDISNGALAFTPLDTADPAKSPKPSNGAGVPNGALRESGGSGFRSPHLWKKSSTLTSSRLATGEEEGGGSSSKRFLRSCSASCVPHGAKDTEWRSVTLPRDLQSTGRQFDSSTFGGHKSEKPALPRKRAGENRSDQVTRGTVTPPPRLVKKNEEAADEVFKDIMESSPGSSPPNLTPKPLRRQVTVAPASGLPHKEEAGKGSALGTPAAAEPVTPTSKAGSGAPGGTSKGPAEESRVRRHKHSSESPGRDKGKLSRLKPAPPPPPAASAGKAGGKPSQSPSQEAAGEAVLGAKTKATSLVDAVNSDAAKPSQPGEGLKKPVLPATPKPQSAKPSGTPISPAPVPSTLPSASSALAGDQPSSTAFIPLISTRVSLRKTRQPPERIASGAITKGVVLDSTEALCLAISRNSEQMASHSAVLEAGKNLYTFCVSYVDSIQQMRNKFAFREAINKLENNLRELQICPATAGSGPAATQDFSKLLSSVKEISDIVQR
Chain of PDPK1 (O15530 whole entry): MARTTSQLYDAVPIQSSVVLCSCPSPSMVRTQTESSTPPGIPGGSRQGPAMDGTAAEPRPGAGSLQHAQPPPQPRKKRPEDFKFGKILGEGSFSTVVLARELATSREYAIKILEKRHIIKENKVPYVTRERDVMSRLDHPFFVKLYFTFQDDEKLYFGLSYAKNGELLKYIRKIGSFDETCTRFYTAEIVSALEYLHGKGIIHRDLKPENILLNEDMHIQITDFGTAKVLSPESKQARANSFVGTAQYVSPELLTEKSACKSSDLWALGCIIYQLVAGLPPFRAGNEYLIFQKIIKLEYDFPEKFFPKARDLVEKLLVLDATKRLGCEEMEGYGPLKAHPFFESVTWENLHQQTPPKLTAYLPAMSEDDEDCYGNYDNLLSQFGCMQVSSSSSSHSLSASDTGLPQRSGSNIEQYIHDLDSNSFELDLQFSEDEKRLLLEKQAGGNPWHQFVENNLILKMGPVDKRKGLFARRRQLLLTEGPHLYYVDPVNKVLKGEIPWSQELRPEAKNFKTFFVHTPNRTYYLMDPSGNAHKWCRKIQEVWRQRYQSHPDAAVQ
Chain of EP4R Thr76Ala mutant (P35408 whole entry T76A): as the sequence (P35408 whole entry, the tested form may be a part) above, with T76A counted along it

O=C([O-])C1CCC2(CC1)CC(Nc1ncnc3[nH]c4c(F)cccc4c13)C2.[Na+] (centres unmarked) [Compound 77, [Na+].[O-]C(=O)C1CCC2(CC(C2)NC=3N=CN=C4NC=5C(F)=CC=CC5C34)CC1] was tested, and the “effect on baseline mechanical thresholds” value (mice) was “no effect”.
O=C(O)C1CCC2(CC1)CC(Nc1ncnc3[nH]c4c(F)cccc4c13)C2 (centres unmarked) [Compound 74, OC(=O)C1CCC2(CC(C2)NC=3N=CN=C4NC=5C(F)=CC=CC5C34)CC1] gave a Ki (EP4R [1]) of 366 nM, a remaining activity at 10 µM (AXL) of 47% and a remaining binding at 10 µM ([2]; 10000 nM, read-out: Percent Control) of 0.25%. The “Signal (qPCR)” value ([2]; JAK3, [Compound] 0.0001 nM) was 1.3e-6 and 8.87e-7, the “Signal (qPCR)” value ([2]; JAK3, [Compound] 0.001 nM) was 1.24e-6 and 1.2e-6 and the “Signal (qPCR)” value ([2]; JAK3, [Compound] 0.01 nM) was 1.37e-6 and 1.42e-6. The “Signal (qPCR)” value ([2]; JAK3, [Compound] 0.169 nM) was 1.07e-6 and 1.21e-6, the “Signal (qPCR)” value ([2]; JAK3, [Compound] 0.508 nM) was 1.06e-6 and 1.26e-6 and the “Signal (qPCR)” value ([2]; JAK3, [Compound] 1.52 nM) was 1.19e-6 and 1.38e-6. The “Signal (qPCR)” value ([2]; JAK3, [Compound] 4.57 nM) was 1.36e-6 and 1.47e-6, the “Signal (qPCR)” value ([2]; JAK3, [Compound] 13.7 nM) was 1.11e-6 and 1.19e-6 and the “Signal (qPCR)” value ([2]; JAK3, [Compound] 41.2 nM) was 1.18e-6 and 1.3e-6. The “Signal (qPCR)” value ([2]; JAK3, [Compound] 123 nM) was 1.07e-6 and 1.06e-6, the “Signal (qPCR)” value ([2]; JAK3, [Compound] 370 nM) was 8.09e-7 and 7.97e-7 and the “Signal (qPCR)” value ([2]; JAK3, [Compound] 3330 nM) was 1.07e-7. The “Signal (qPCR)” value ([2]; JAK3, [Compound] 10000 nM) was 2.42e-8 and 3.31e-8, the remaining activity at 10 µM (ABL1-nonphosphorylated) was 67% and the remaining activity at 10 µM (ZAP70) was 75%. For the same molecule, the remaining activity at 10 µM (CDK2) was 96%, the remaining activity at 10 µM (PIM1) was 72% and the remaining activity at 10 µM (FGFR2) was 71%. It also gave a remaining activity at 10 µM (PDPK1) of 64%, a remaining activity at 10 µM (IKK-alpha) of 42% and a remaining activity at 10 µM (CHEK1) of 100%. For the same molecule, the remaining activity at 10 µM (FAK) was 97%, the remaining activity at 10 µM (CDK11) was 46% and the remaining activity at 10 µM (ERK1) was 100%. It also gave a remaining activity at 10 µM (PRKCE) of 57%, a remaining activity at 10 µM (INSR) of 90% and a remaining activity at 10 µM (DCAMKL1) of 78%. It also gave a remaining activity at 10 µM (p38-alpha) of 87%, a remaining activity at 10 µM (DYRK1B) of 74% and a remaining activity at 10 µM (BTK) of 67%. The remaining activity at 10 µM (ULK2) was 54%, the remaining activity at 10 µM (TRKA) was 11% and the remaining activity at 10 µM (GSK3B) was 82%. The remaining activity at 10 µM (YANK3) was 62%, the remaining activity at 10 µM (PIK3CG) was 3.5% and the remaining activity at 10 µM (ROCK2) was 59%. For the same molecule, the “reduced potency at the Thr76Ala mutant” value (EP4R Thr76Ala mutant) was 30 fold, the “inhibition in kinase panel” value (97 human kinases) was “notable inhibition of five kinases” and the “binding to EP1 receptor” value (EP1R) was “no binding”. For the same molecule, the Kb (EP4R [3]) was 16 nM.
